Among the data in ChEMBL document CHEMBL1126450, “Semisynthetic modification of hygromycin A. 3. synthesis and antibacterial activity of aminocyclitol analogs” (1992) are MIC values, retold here.

Values after ≈ are worked out from the molar mass of the structure shown. Bounds are passed on as bounds.

As usually defined, the MIC is the lowest concentration that inhibits growth of the organism. High values mean a less susceptible organism, low ones a more susceptible organism.

Test [1] relates to Brachyspira hyodysenteriae. Briefly: The minimum inhibitory concentration (MIC) of the cyclohexylamide analogs against Serpulina hyodysenteriae. Format: functional.
Test [2] has as its system Pasteurella multocida. The test can be described thus: The minimum inhibitory concentration (MIC) of the cyclohexylamide analogs against Pasteurella multocida. Format: functional.

For the compound `CO[C@@H]1[C@H](O)[C@@H](O)[C@@H](NC(=O)/C(C)=C\c2ccc(O[C@@H]3O[C@H](C(C)=O)[C@@H](O)[C@@H]3O)c(O)c2)[C@@H](O)[C@@H]1OC`, the MIC in test [1] was 100 µg/mL (≈ 190 µM); in test [2] it was greater than 400 µg/mL.
For `CO[C@@H]1[C@@H](O)[C@H]2OCO[C@H]2[C@H](O)[C@@H]1NC(=O)/C(C)=C\c1ccc(O[C@@H]2O[C@H](C(C)=O)[C@@H](O)[C@@H]2O)c(O)c1`, the MIC in test [1] is 3.13 µg/mL (≈ 5.96 µM); in test [2], 12.5 µg/mL (≈ 23.8 µM).
On the same counts, the results for `CC(=O)[C@H]1O[C@@H](Oc2ccc(/C=C(\C)C(=O)N[C@H]3C4OC(C5OCOC54)[C@H]3O)cc2O)[C@@H](O)[C@@H]1O` (some centres undefined) are greater than 200 µg/mL and greater than 200 µg/mL.
Consider `CO[C@@H]1[C@@H](O)[C@@H](NC(=O)/C(C)=C\c2ccc(O[C@@H]3O[C@H](C(C)=O)[C@@H](O)[C@@H]3O)c(O)c2)[C@@H](O)[C@@H]2OCO[C@H]12`, for which the results for the MIC in test [1] and in test [2] were 25 µg/mL (≈ 47.6 µM) and 100 µg/mL (≈ 190 µM), respectively.
For `CC(=O)[C@H]1O[C@@H](Oc2ccc(/C=C(/C)C(=O)N[C@H]3[C@@H](O)[C@@H]4OCO[C@@H]4[C@H](O)[C@@H]3O)cc2O)[C@@H](O)[C@@H]1O`, the minimum inhibitory concentration (MIC) in test [1] came to 3.13 µg/mL (≈ 6.12 µM); in test [2] it was 12.5 µg/mL (≈ 24.4 µM).
Take `CO[C@@H]1[C@H](NC(=O)/C(C)=C\c2ccc(O[C@@H]3O[C@H](C(C)=O)[C@@H](O)[C@@H]3O)c(O)c2)[C@H](O)[C@@H](O)[C@H]2OCO[C@H]21`: the results for the MIC in test [1] and in test [2] were 6.25 µg/mL (≈ 11.9 µM) and 12.5 µg/mL (≈ 23.8 µM), respectively.
`CC(=O)[C@H]1O[C@@H](Oc2ccc(/C=C(\C)C(=O)N[C@@H]3[C@H](O)[C@@H](O)[C@H]4OCO[C@H]4[C@@H]3O)cc2O)[C@@H](O)[C@@H]1O` [HYGROMYCIN A]: the MIC in test [1] and in test [2] was 1.56 µg/mL (≈ 3.05 µM) each time.
